Square brackets hold non-standard residues; d marks the D form. Peptide text beside a SMILES is read from it. * marks the point of attachment. X2 = CCCCCCCCCCCC(=O)OC[C@H](C*)OC(=O)CCCCCCCCCCC; Palmitoyl = CCCCCCCCCCCCCCCC(=O)*
Tested on: Alveolar rat macrophages
Assay: Activation of alveolar rat macrophages: specific cytotoxicity against 125I-marked tumour cells
Format: cell-based
Procedure: Alveolar rat macrophages are obtained by lung lavage, plated out and incubated in vitro from 24 hours either with liposomes that are charged with the active ingredient, or with the active ingredient in physiological salt solution (phosphate buffered saline, PBS), ^125 I-marked tumour cells are added and incubation is continued for a further 72 hours. Subsequently the dead tumour cells are washed away and the number of tumour cells still living is determined on the basis of their radioactivity. The macrophage activation is assessed on the basis of the cytotoxicity, that is to say according to the proportion of tumour cells dead at the end of the test. The specific cytotoxicity [%] is calculated as follows: [formula] Further details of the above-mentioned test method are described in I. J. Fidler et al., J. Biol. Response Modifiers 1, 43-55 (1982).

SMILES: CCCCCCCCCCCCCCCC(=O)N[C@@H](CSC[C@@H](COC(=O)CCCCCCCCCCC)OC(=O)CCCCCCCCCCC)C(=O)N[C@H](C)C(=O)N[C@@H](C)C(=O)N[C@H](CCC(=O)O)C(N)=O [R, palmitoyl-Cys(2[R], 3-dilauroyloxy-propyl)-D-Ala-Ala-D-Glu-NH2] (Palmitoyl-C(X2)[dA]A[dE]-NH2)
- Specific cytotoxicity [%] (active ingredient in 100 μg of liposomes per 0.2 ml, 0.02 μg/culture): 20%
- Specific cytotoxicity [%] (active ingredient in 100 μg of liposomes per 0.2 ml, 0.2 μg/culture): 18%
- Specific cytotoxicity [%] (active ingredient in 100 μg of liposomes per 0.2 ml, 2 μg/culture): 86%
- Specific cytotoxicity [%] (active ingredient in 0.2 ml of PBS, 0.02 μg/culture): 0%
- Specific cytotoxicity [%] (active ingredient in 0.2 ml of PBS, 0.2 μg/culture): 84%
- Specific cytotoxicity [%] (active ingredient in 0.2 ml of PBS, 2 μg/culture): 51%

Reference: patent US4666886A, “Novel peptide derivatives” (Ciba-Geigy Corporation, priority 1983, dated 1987)
